From ChEMBL document CHEMBL3885881, “DrugMatrix”

Organism: Rattus norvegicus
Assay: DrugMatrix - Regimen: Daily Repeat
Type: toxicity, organism-based, Sprague-Dawley
Design: regimen Daily Repeat, gender Male, age 6-8 weeks
Settings: in vivo, po, route oral GAVAGE, vehicle .5 % CMC; for ABSOLUTE BASOPHIL / ABSOLUTE EOSINOPHIL / ABSOLUTE LYMPHOCYTE / ABSOLUTE MONOCYTE / ABSOLUTE SEGMENTED NEUTROPHIL / BASOPHIL / EOSINOPHIL / ERYTHROCYTE COUNT / HEMATOCRIT / HEMOGLOBIN / LEUKOCYTE COUNT / LYMPHOCYTE / MEAN CORPUSCULAR HEMOGLOBIN / MEAN CORPUSCULAR HEMOGLOBIN CONCENTRATION / MEAN CORPUSCULAR VOLUME / MONOCYTE / NEUTROPHIL / NUCLEATED RED BLOOD CELLS / PLATELET COUNT: tissue Blood; for ALANINE AMINOTRANSFERASE / ALBUMIN / ALKALINE PHOSPHATASE / ASPARTATE AMINOTRANSFERASE / BLOOD UREA NITROGEN / CARBON DIOXIDE / CHLORIDE / CHOLESTEROL / CREATINE PHOSPHOKINASE / CREATININE / GLUCOSE / LACTATE DEHYDROGENASE / LIPASE / PHOSPHORUS / POTASSIUM / SODIUM / TOTAL BILIRUBIN / TOTAL PROTEIN / URIC ACID: tissue Plasma
[1] = 34 mg/kg, 72 h, dose level Low, time 3 day
[2] = 34 mg/kg, 120 h, dose level Low, time 5 day
[3] = 364 mg/kg, 72 h, dose level High, time 3 day
[4] = 364 mg/kg, 120 h, dose level High, time 5 day

## Cc1cccc(Nc2cc(Cl)nc(SCC(=O)O)n2)c1C [PIRINIXIC ACID]
[1]
  ABSOLUTE BASOPHIL: 0 CELLS/uL
  ABSOLUTE EOSINOPHIL: 24.33 CELLS/uL
  ABSOLUTE LYMPHOCYTE: 9231.67 CELLS/uL
  ABSOLUTE MONOCYTE: 145 CELLS/uL
  ABSOLUTE SEGMENTED NEUTROPHIL: 1199 CELLS/uL
  BASOPHIL: 0%
  EOSINOPHIL: 0.33%
  ERYTHROCYTE COUNT: 5.01 x10E6/uL
  HEMATOCRIT: 31.77%
  HEMOGLOBIN: 11.67 G/DL
  LEUKOCYTE COUNT: 10.6 x10E3/uL
  LYMPHOCYTE: 85.67%
  MEAN CORPUSCULAR HEMOGLOBIN: 23.3 pg
  MEAN CORPUSCULAR HEMOGLOBIN CONCENTRATION: 36.7 G/DL
  MEAN CORPUSCULAR VOLUME: 63.5 fL
  MONOCYTE: 1.67%
  NEUTROPHIL: 12.33%
  NUCLEATED RED BLOOD CELLS: 0 /100WBC
  PLATELET COUNT: 1123.33 x10E3/uL
  ALANINE AMINOTRANSFERASE: 55.67 u/L
  ALBUMIN: 4.73 G/DL
  ALKALINE PHOSPHATASE: 457.33 u/L
  ASPARTATE AMINOTRANSFERASE: 87.33 u/L
  BLOOD UREA NITROGEN: 13.33 mg/dL
  CARBON DIOXIDE: 36.67 mmol/L
  CHLORIDE: 100.33 MEQ/L
  CHOLESTEROL: 52.67 mg/dL
  CREATINE PHOSPHOKINASE: 447.33 u/L
  CREATININE: 0.17 mg/dL
  GLUCOSE: 140 mg/dL
  LACTATE DEHYDROGENASE: 140 u/L
  LIPASE: 8 u/L
  PHOSPHORUS: 12.6 mg/dL
  POTASSIUM: 6.61 MEQ/L
  SODIUM: 143.77 MEQ/L
  TOTAL BILIRUBIN: 0.1 mg/dL
  TOTAL PROTEIN: 5.83 G/DL
  URIC ACID: 0.87 mg/dL
[2]
  ABSOLUTE BASOPHIL: 0 CELLS/uL
  ABSOLUTE EOSINOPHIL: 0 CELLS/uL
  ABSOLUTE LYMPHOCYTE: 7298 CELLS/uL
  ABSOLUTE MONOCYTE: 306 CELLS/uL
  ABSOLUTE SEGMENTED NEUTROPHIL: 1029.33 CELLS/uL
  BASOPHIL: 0%
  EOSINOPHIL: 0%
  ERYTHROCYTE COUNT: 5.39 x10E6/uL
  HEMATOCRIT: 34.73%
  HEMOGLOBIN: 13.23 G/DL
  LEUKOCYTE COUNT: 8.63 x10E3/uL
  LYMPHOCYTE: 84.33%
  MEAN CORPUSCULAR HEMOGLOBIN: 24.57 pg
  MEAN CORPUSCULAR HEMOGLOBIN CONCENTRATION: 38.13 G/DL
  MEAN CORPUSCULAR VOLUME: 64.5 fL
  MONOCYTE: 3.67%
  NEUTROPHIL: 12%
  NUCLEATED RED BLOOD CELLS: 0 /100WBC
  PLATELET COUNT: 1176.33 x10E3/uL
  ALANINE AMINOTRANSFERASE: 55 u/L
  ALBUMIN: 4.63 G/DL
  ALKALINE PHOSPHATASE: 445.33 u/L
  ASPARTATE AMINOTRANSFERASE: 92.67 u/L
  BLOOD UREA NITROGEN: 10 mg/dL
  CARBON DIOXIDE: 27.67 mmol/L
  CHLORIDE: 105 MEQ/L
  CHOLESTEROL: 39.67 mg/dL
  CREATINE PHOSPHOKINASE: 609.67 u/L
  CREATININE: 0.19 mg/dL
  GLUCOSE: 179 mg/dL
  LACTATE DEHYDROGENASE: 166.33 u/L
  LIPASE: 9.33 u/L
  PHOSPHORUS: 13.63 mg/dL
  POTASSIUM: 5.28 MEQ/L
  SODIUM: 147.67 MEQ/L
  TOTAL BILIRUBIN: 0.0333 mg/dL
  TOTAL PROTEIN: 6.17 G/DL
  URIC ACID: 1.6 mg/dL
[3]
  ABSOLUTE BASOPHIL: 0 CELLS/uL
  ABSOLUTE EOSINOPHIL: 0 CELLS/uL
  ABSOLUTE LYMPHOCYTE: 6159.33 CELLS/uL
  ABSOLUTE MONOCYTE: 64.67 CELLS/uL
  ABSOLUTE SEGMENTED NEUTROPHIL: 442.67 CELLS/uL
  BASOPHIL: 0%
  EOSINOPHIL: 0%
  ERYTHROCYTE COUNT: 5.12 x10E6/uL
  HEMATOCRIT: 32.3%
  HEMOGLOBIN: 11.83 G/DL
  LEUKOCYTE COUNT: 6.67 x10E3/uL
  LYMPHOCYTE: 92.33%
  MEAN CORPUSCULAR HEMOGLOBIN: 23.17 pg
  MEAN CORPUSCULAR HEMOGLOBIN CONCENTRATION: 36.63 G/DL
  MEAN CORPUSCULAR VOLUME: 63.17 fL
  MONOCYTE: 1%
  NEUTROPHIL: 6.67%
  NUCLEATED RED BLOOD CELLS: 0 /100WBC
  PLATELET COUNT: 1033.67 x10E3/uL
  ALANINE AMINOTRANSFERASE: 53.33 u/L
  ALBUMIN: 4.73 G/DL
  ALKALINE PHOSPHATASE: 564 u/L
  ASPARTATE AMINOTRANSFERASE: 87 u/L
  BLOOD UREA NITROGEN: 12.67 mg/dL
  CARBON DIOXIDE: 35.33 mmol/L
  CHLORIDE: 102.33 MEQ/L
  CHOLESTEROL: 49.67 mg/dL
  CREATINE PHOSPHOKINASE: 282.33 u/L
  CREATININE: 0.2 mg/dL
  GLUCOSE: 142.33 mg/dL
  LACTATE DEHYDROGENASE: 143.67 u/L
  LIPASE: 8.67 u/L
  PHOSPHORUS: 12.8 mg/dL
  POTASSIUM: 6.58 MEQ/L
  SODIUM: 147.03 MEQ/L
  TOTAL BILIRUBIN: 0.1 mg/dL
  TOTAL PROTEIN: 5.67 G/DL
  URIC ACID: 1 mg/dL
[4]
  ABSOLUTE BASOPHIL: 0 CELLS/uL
  ABSOLUTE EOSINOPHIL: 0 CELLS/uL
  ABSOLUTE LYMPHOCYTE: 6969 CELLS/uL
  ABSOLUTE MONOCYTE: 193.33 CELLS/uL
  ABSOLUTE SEGMENTED NEUTROPHIL: 904.33 CELLS/uL
  BASOPHIL: 0%
  EOSINOPHIL: 0%
  ERYTHROCYTE COUNT: 5.24 x10E6/uL
  HEMATOCRIT: 32.1%
  HEMOGLOBIN: 12.47 G/DL
  LEUKOCYTE COUNT: 8.07 x10E3/uL
  LYMPHOCYTE: 87.33%
  MEAN CORPUSCULAR HEMOGLOBIN: 23.8 pg
  MEAN CORPUSCULAR HEMOGLOBIN CONCENTRATION: 38.8 G/DL
  MEAN CORPUSCULAR VOLUME: 61.27 fL
  MONOCYTE: 2.33%
  NEUTROPHIL: 10.33%
  NUCLEATED RED BLOOD CELLS: 0 /100WBC
  PLATELET COUNT: 1189 x10E3/uL
  ALANINE AMINOTRANSFERASE: 57 u/L
  ALBUMIN: 5 G/DL
  ALKALINE PHOSPHATASE: 591 u/L
  ASPARTATE AMINOTRANSFERASE: 173 u/L
  BLOOD UREA NITROGEN: 15.33 mg/dL
  CARBON DIOXIDE: 35 mmol/L
  CHLORIDE: 101.67 MEQ/L
  CHOLESTEROL: 56.67 mg/dL
  CREATINE PHOSPHOKINASE: 895.67 u/L
  CREATININE: 0.17 mg/dL
  GLUCOSE: 139.67 mg/dL
  LACTATE DEHYDROGENASE: 272.67 u/L
  LIPASE: 9 u/L
  PHOSPHORUS: 11.73 mg/dL
  POTASSIUM: 6.36 MEQ/L
  SODIUM: 146.87 MEQ/L
  TOTAL BILIRUBIN: 0.0667 mg/dL
  TOTAL PROTEIN: 6.1 G/DL
  URIC ACID: 1.1 mg/dL
